In patent publication US12428378B2, “Methods and materials for increasing level of phosphorylated AMPK protein” (University of Pittsburgh—Of the Commonwealth System of …, priority 2019, dated 2025):
“And” between values parts separate entries of the source, which are not always exact repeats. Identical values can stand only once. Like-named read-outs stand apart in the source and are kept apart here.

What was measured:
pAMPK = pAMPK immunostaining chemiluminescence assay in Beas2B cells; type: cell-based; details: Homo sapiens, BEAS-2B, 18 h, DMEM no glucose media, compounds 3-34, 36-44, 47-60 tested as HCl salts, read-out: efficacy (minimal compound concentration needed to increase pAMPK by 30%)
[1] = test system: methicillin resistant Staphylococcus aureus (strain ATCC 33591); test: Antimicrobial efficacy against MRSA lung infection in neutropenic BALB/c mice; type: in vivo; details: 25 mg/kg orally once a day, days -4 to 0; lungs 24 hours after inoculation; p<0.01 compared to vehicle
Method: Groups of 5-10 female BALB/c mice weighing 20±2 g were used in this study. Animals were rendered immune suppressed by treatment with 250 mg/kg of cyclophosphamide IP at 4 and 2 days before infection (Day −4 and −2). Vehicle 10% DMA (N,N-dimethylacetamide):40% PEG300:50% H2O) and/or test substances were administered on days −4, −3, −2, −1 and 0.
On day 0, immediately following the final dose, animals were inoculated intranasally (0.02 mL/lung) with 1-5×10^6 colony forming units (CFU)/mouse of MRSA (ATCC 33591) after being anaesthetized by etomidate (20 mg/kg dose, IV). In addition, following the final dose, blood was collected at 0, 0.5 h, 1 h, 2 h, 4 h and 24 h from three animals of each group, via facial veins. Terminal blood samples were taken by cardiac puncture. Blood samples were drawn into K2EDTA anti-coagulant coated mini collection tubes. The blood was collected from group 1 after sacrifice as the blank for PK analysis. Samples were stored on ice for no more than one hour then centrifuged at 2500×g for 15 min at 4° C. Plasma (˜50 μL) was stored at −80° C. until analysis.
At 24 hours after inoculation, the animals were humanely euthanized with CO2 asphyxiation, and the lung tissue was harvested from each of the test animals. The tissues were homogenized in 1 mL of PBS. […]

[2] = Plasma exposure and PK of compound 63 in mouse plasma (HPLC-MS/MS); type: in vivo

Question: For Cc1ccccc1CN(CCCOc1ccc(C(F)(F)F)cc1)Cc1cccnc1 [compound 63], which EC (30% increase) (pAMPK) is on record?
Answer: ≤ 1 µM

Question: And the “clearance of MRSA from the lung (CFU)” value [1]?
Answer: cleared MRSA from the lung

Question: What about the “Sample concentration, individual animals” value ([2]; 25 mg/kg PO QD x 5, time 0 h, 25 mg/kg) of the same compound?
Answer: 3 ng/mL and 0 ng/mL (2×)

Question: What about the “Sample concentration, individual animals” value ([2]; 25 mg/kg PO QD x 5, time 0.5 h, 25 mg/kg) of the same compound?
Answer: 180 ng/mL and 243 ng/mL and 390 ng/mL

Question: What about the “Sample concentration, individual animals” value ([2]; 25 mg/kg PO QD x 5, time 1 h, 25 mg/kg) of the same compound?
Answer: 95 ng/mL and 120 ng/mL

Question: And the “Sample concentration, individual animals” value ([2]; 25 mg/kg PO QD x 5, time 2 h, 25 mg/kg)?
Answer: 16 ng/mL and 36 ng/mL and 31 ng/mL

Question: And the “Sample concentration, individual animals” value ([2]; 25 mg/kg PO QD x 5, time 4 h, 25 mg/kg)?
Answer: 22 ng/mL and 38 ng/mL and 18 ng/mL

Question: What about the “Sample concentration, individual animals” value ([2]; 25 mg/kg PO QD x 5, time 24 h, 25 mg/kg) of the same compound?
Answer: 7 ng/mL and 0 ng/mL and 3 ng/mL

Question: And the AUC(0-inf) ([2]; BALB/c, dose PO 25 mg/kg)?
Answer: 622 ng·h/mL

Question: And the AUC(0-t) ([2]; BALB/c, dose PO 25 mg/kg)?
Answer: 593 ng·h/mL

Question: And the Cmax ([2]; BALB/c, dose PO 25 mg/kg)?
Answer: 271 ng/mL

Question: And the Tmax ([2]; BALB/c, dose PO 25 mg/kg)?
Answer: 30 min

Question: And the concentration at 0 h ([2]; BALB/c, mouse, plasma, po, 25 mg/kg, 25 mg/kg PO QD x 5, time 0 h, excluded from the PK calculation, read-out: Sample concentration, mean)?
Answer: 1 ng/mL

Question: What about the concentration at 0.5 h ([2]; BALB/c, mouse, plasma, po, 25 mg/kg, 25 mg/kg PO QD x 5, time 0.5 h, read-out: Sample concentration, mean) of the same compound?
Answer: 271 ng/mL

Question: What about the concentration at 1 h ([2]; BALB/c, mouse, plasma, po, 25 mg/kg, 25 mg/kg PO QD x 5, time 1 h, read-out: Sample concentration, individual animals) of the same compound?
Answer: 184 ng/mL

Question: And the concentration at 1 h ([2]; BALB/c, mouse, plasma, po, 25 mg/kg, 25 mg/kg PO QD x 5, time 1 h, read-out: Sample concentration, mean)?
Answer: 133 ng/mL

Question: And the concentration at 2 h ([2]; BALB/c, mouse, plasma, po, 25 mg/kg, 25 mg/kg PO QD x 5, time 2 h, read-out: Sample concentration, mean)?
Answer: 28 ng/mL

Question: And the concentration at 4 h ([2]; BALB/c, mouse, plasma, po, 25 mg/kg, 25 mg/kg PO QD x 5, time 4 h, read-out: Sample concentration, mean)?
Answer: 26 ng/mL

Question: And the concentration at 24 h ([2]; BALB/c, mouse, plasma, po, 25 mg/kg, 25 mg/kg PO QD x 5, time 24 h, read-out: Sample concentration, mean)?
Answer: 3 ng/mL

Question: What about the AUC/D ([2]; dose PO 25 mg/kg) of the same compound?
Answer: 25 kg·ng·h/mL/mg

Question: And the AUCExtr ([2]; dose PO 25 mg/kg)?
Answer: 5%

Question: What about the MTR ([2]; dose PO 25 mg/kg) of the same compound?
Answer: 4.96 h

Question: For Cc1ccccc1CN(CC(C)COc1ccc(C(F)(F)F)cc1)C(=O)c1cncn1C (centres unmarked) [compound 195], which EC (30% increase) (pAMPK) is on record?
Answer: ≤ 1 µM

Question: With CC(C)(COc1cnc(C(F)(F)F)nc1)CN(Cc1cccnc1)Cc1ccccc1C(F)(F)F [compound 196] as the compound, how does the EC (30% increase) (pAMPK) read?
Answer: 1 to 10 µM

Question: With CC(C)(COc1ccc(C(F)(F)F)cc1)CN(Cc1cccnc1)Cc1ccccc1C(F)(F)F [compound 197] as the compound, how does the EC (30% increase) (pAMPK) read?
Answer: ≤ 1 µM

Question: Which EC (30% increase) (pAMPK) does the source give for Cc1ccccc1CN(CC(O)COc1ccc(C(F)(F)F)cc1)[C@@H](c1cccnc1)C(F)(F)F (some centres unmarked) [compound 198] here?
Answer: > 10 µM

Question: For Cn1ccnc1C1c2ccccc2CCN1CCCOc1ccc(C(F)(F)F)cc1 (centres unmarked) [compound 199], which EC (30% increase) (pAMPK) is on record?
Answer: 1 to 10 µM

Question: For Cc1ccccc1CN(Cc1cccnc1)CC(C)(O)COc1ccc(C(F)(F)F)cc1 (centres unmarked) [compound 200], which EC (30% increase) (pAMPK) is on record?
Answer: ≤ 1 µM

Question: For Cn1cncc1C(=O)N(Cc1ccccc1Cl)CC(C)(O)COc1ccc(C(F)(F)F)cc1 (centres unmarked) [compound 201], which EC (30% increase) (pAMPK) is on record?
Answer: 1 to 10 µM
